# Test results reported in US20260240797A1, “TREATMENT OF ULCERATIVE COLITIS COMPRISING VIDOFLUDIMUS OR A PHARMACEUTICALLY ACCEPTABLE SALT THEREOF” (IMMUNIC AG, priority 2022, published 2026).
# Structures can show the parent of a compound that is named as a salt.
# How the values were obtained:
# [1] = tested on: patients with moderate-to-severe ulcerative colitis; experiment: CALDOSE-1 phase 2 trial (NCT03341962), induction phase efficacy; assay type: in vivo, human; details: for Odds Ratio Estimate to achieve clinical remission versus placebo: active treatment groups of 30/45 mg, multivariate logistical regression
# [2] = tested on: patients with moderate-to-severe ulcerative colitis; experiment: CALDOSE-1 phase 2 trial, maintenance phase efficacy (Week 50); assay type: in vivo, human; details: for Clinical Remission Rate at Week 50 (steroid-free): Modified Full Analysis Set MP; for Number of Patients with Clinical Remission at Week 50 (steroid-free): Modified Full Analysis Set MP (corticosteroids during induction)
# [3] = tested on: patients with moderate-to-severe ulcerative colitis; experiment: CALDOSE-1 phase 2 trial, safety and tolerability; assay type: in vivo, human; details: for Incidence of TEAEs of Special Interest: red blood cells urine positive, hematuria or retroperitoneal pain
# [4] = tested on: patients with relapsing remitting MS (rrMS); details: cited from earlier work
# [5] = in vivo; cited from earlier work
# human DHODH = human DHODH (Homo sapiens, UniProt Q02127); details: cited from earlier work
# Chain of human DHODH (Q02127 whole entry): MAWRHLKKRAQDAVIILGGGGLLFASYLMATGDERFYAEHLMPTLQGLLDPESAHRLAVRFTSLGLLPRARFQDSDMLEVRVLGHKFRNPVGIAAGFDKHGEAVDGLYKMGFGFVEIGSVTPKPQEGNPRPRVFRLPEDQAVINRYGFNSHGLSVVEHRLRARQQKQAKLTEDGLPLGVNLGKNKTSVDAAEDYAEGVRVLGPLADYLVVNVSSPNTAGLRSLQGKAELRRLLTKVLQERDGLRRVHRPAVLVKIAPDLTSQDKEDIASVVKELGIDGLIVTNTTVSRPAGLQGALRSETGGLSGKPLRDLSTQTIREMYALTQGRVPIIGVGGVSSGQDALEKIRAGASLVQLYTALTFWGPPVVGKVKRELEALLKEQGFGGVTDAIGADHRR
# [6] = tested on: T-lymphocyte proliferation; details: in vitro; cited from earlier work
# [7] = tested on: secretion of IL-17 and IFNγ; details: in vitro; cited from earlier work
# patients with CD = details: 12 weeks, cited from earlier work
# patients with UC = details: 12 weeks, cited from earlier work
# [8] = tested on: patients with inflammatory bowel disease (IBD); details: 35 mg oral once daily, 12 weeks; cited from earlier work
# [9] = tested on: patients with active rheumatoid arthritis; details: 35 mg once-daily for 13 weeks; cited from earlier work
structure (smiles),measurement,setting,value
"COc1cccc(-c2ccc(NC(=O)C3=C(C(=O)O)CCC3)c(F)c2)c1 [IMU-838, 1-cyclopentene-1-carboxylic acid, 2-(((3-fluoro-3′-methoxy(1,1′-biphenyl)-4-yl)amino)carbonyl)-, calcium salt (2:1)]",clinical remission at week 10,"[1]; 10 mg/day, overall intent-to-treat patient population",14.9%
same,clinical remission at week 10,"[1]; 30 mg/day, overall intent-to-treat patient population",10.6%
same,clinical remission at week 10,"[1]; 45 mg/day, overall intent-to-treat patient population",13.6%
same,Odds Ratio Estimate to achieve clinical remission versus placebo,[1]; with concomitant steroids,0.58
same,Odds Ratio Estimate to achieve clinical remission versus placebo,[1]; without concomitant steroids,3.53
same,rate of clinical remission at week 10,[1]; patients concomitantly taking corticosteroids during induction treatment,11.5%
same,clinical remission (primary endpoint) at Week 10,"[1]; pooled 30 and 45 mg, Full Analysis Set, n=16 missing data",13.8%
same,patients with clinical remission (primary endpoint) at Week 10,"[1]; pooled 30 and 45 mg, Full Analysis Set, of 116 evaluated",16
same,advantage in clinical remission over placebo,"[1]; pooled treatment groups at week 10, non-steroid patient population",11.4%
same,clinical remission at week 10,"[1]; pooled treatment groups, non-steroid patient population (no concurrent corticosteroids)",14.7%
same,Clinical Remission Rate at Week 50 (steroid-free),[2]; 10 mg,38.5%
same,Number of Patients with Clinical Remission at Week 50 (steroid-free),"[2]; 10 mg, N10 = 22",5
same,Mean time to symptomatic UC relapse,"[2]; 10 mg, N = 45",231.7 days
same,Clinical Remission Rate at Week 50,"[2]; 10 mg, n = 26/35",42.3%
same,Number of Patients with Clinical Remission at Week 50,"[2]; 10 mg, n = 26/35 evaluated/total",11
same,Endoscopic Healing Rate at Week 50,"[2]; 10 mg, n = 28/35",53.6%
same,Number of Patients Meeting Endpoint (Endoscopic Healing at Week 50),"[2]; 10 mg, n = 28/35",15
same,delta (Δ) vs placebo in clinical remission at Week 50,"[2]; 30 mg, 95% CI 3.2%-59.3%",33.8%
same,Clinical Remission Rate at Week 50 (steroid-free),[2]; 30 mg,66.7%
same,Number of Patients with Clinical Remission at Week 50 (steroid-free),"[2]; 30 mg, N30 = 22",8
same,Mean time to symptomatic UC relapse,"[2]; 30 mg, N = 40",221.9 days
same,Clinical Remission Rate at Week 50,"[2]; 30 mg, n = 26/29",61.5%
same,Endoscopic Healing Rate at Week 50,"[2]; 30 mg, n = 26/29",73.1%
same,Number of Patients Meeting Endpoint (Endoscopic Healing at Week 50),"[2]; 30 mg, n = 26/29",19
same,Number of Patients with Clinical Remission at Week 50,"[2]; 30 mg, n = 26/29 evaluated/total",16
same,odds ratio (30 mg IMU-838/Placebo) for clinical remission at Week 50,"[2]; 30 mg, two-sided Pearson's chi-square p=0.0358",4.16
same,safety and tolerability,"[3]; induction phase, 10, 30, 45 mg/day",safe and well-tolerated
same,Incidence of Liver TEAEs,"[3]; maintenance phase, 10 mg",2.2%
same,Incidence of Renal TEAEs,"[3]; maintenance phase, 10 mg",2.2%
same,Incidence of Serious TEAEs,"[3]; maintenance phase, 10 mg",6.7%
same,Incidence of TEAEs,"[3]; maintenance phase, 10 mg, N10 = 45",35.6%
same,Incidence of TEAEs of Special Interest,"[3]; maintenance phase, 10 mg",0.0%
same,Incidence of Liver TEAEs,"[3]; maintenance phase, 30 mg",0.0
same,Incidence of Renal TEAEs,"[3]; maintenance phase, 30 mg",5%
same,Incidence of Serious TEAEs,"[3]; maintenance phase, 30 mg",5%
same,Incidence of TEAEs,"[3]; maintenance phase, 30 mg, N30 = 40",40%
same,Incidence of TEAEs of Special Interest,"[3]; maintenance phase, 30 mg",5%
same,safety and tolerability,"[3]; maintenance phase, 10 and 30 mg",safe and well tolerated
same,safety profile,[4]; 30 mg and 45 mg doses,favorable safety profile
same,suppression of MRI activity,"[4]; 30 mg dose, 24-weeks of treatment",70%
same,half-life,[5],approximately 30 h
same,potency against human DHODH,human DHODH,submicromolar potency
same,T-lymphocyte proliferation,[6],inhibited
same,secretion of IL-17 and IFNγ,[7],inhibited
"COc1cccc(-c2ccc(NC(=O)C3=C(C(=O)O)CCC3)c(F)c2)c1 [Vidofludimus, 2-((3-fluoro-3′-methoxy-[1,1′-biphenyl]-4-yl)carbamoyl)cyclopent-1-enecarboxylic acid]",number of partial responders,patients with CD; 35 mg oral once daily,4
same,partial responders,patients with CD; 35 mg oral once daily,29%
same,patients in steroid-free remission (complete responders),patients with CD; 35 mg oral once daily,57%
same,number of patients in steroid-free remission (complete responders),"patients with CD; out of 14, 35 mg oral once daily",8
same,number of partial responders,patients with UC; 35 mg oral once daily,5
same,partial responders,patients with UC; 35 mg oral once daily,42%
same,patients in steroid-free remission (complete responders),patients with UC; 35 mg oral once daily,50%
same,number of patients in steroid-free remission (complete responders),"patients with UC; out of 12, 35 mg oral once daily",6
same,tolerability / drug-related serious adverse events,[8],well tolerated and no drug-related serious adverse events were observed
same,"diarrhoea, alopecia, neutropenia or liver enzyme elevations",[9],no notable increases
same,safety profile compared to placebo,[9],overall similar safety profile as compared to placebo
